Experimental findings from US6635641B2 (Agouron Pharmaceuticals, Inc., priority 2000, dated 2003) are described below.

Data set [1] relates to human umbilical vein endothelial cells (HUVEC). Kind of data set: HUVEC proliferation assay (VEGF-stimulated, MTT). It is filed as cell-based. To be noted: Homo sapiens. The procedure, abridged: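 Exponentially growing HUVEC (passage 3-4) were serum-starved 24 h in F12K + 1% FBS, given test compound (final DMSO 0.1%), then stimulated 1 h later with VEGF at 6 ng/ml final. Proliferation read after 72 h by 4 h MTT dye reduction, absorbance at 595.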

Data set [2] has as its target T1, TEK/Tie-2 intracellular kinase domain (Homo sapiens, UniProt Q02763).
T1 construct: residues 775 to 1124, with methionine added at the N-terminus; made in house; host or cells: baculovirus expression system
Kind of data set: TEK/Tie-2 spectrophotometric assay. It is filed as biochemical. Conditions: read-out: TEK-P percent inhibition. On the procedure:
The intracellular kinase domain (residues 775 to 1124, with methionine added at the N-terminus) of human TEK/Tie-2 was expressed using the baculovirus vector expression system. For assay purposes, the enzyme was autophosphorylated prior to use by incubation overnight at 4° C., at 10 μM enzyme concentration, with 4 mM ATP, 40 mM MgCl2, and 5 mM DTT in 200 mM Hepes buffer at ph 7.5, in 90:10 water:glycerol.
The production of ADP from ATP that accompanies phosphoryl transfer was coupled to oxidation of NADH using phosphoenolpyruvate (PEP) and a system having pyruvate kinase (PK) and lactic dehydrogenase (LDH). The oxidation of NADH was monitored by following the decrease of absorbance at 340 nm (e340=6.22 cm^−1 mM^−1) using a Beckman DU 650 spectrophotometer. Assay conditions for phosphorylated VEGF-R2Δ50 (indicated as FLVK-P in the tables below) were the following: 1 mM PEP; 250 μM NADH; 50 units of LDH/mL; 20 units of PK/mL; 5 mM DTT; 5.1 mM poly(E4Y1); 1 mM ATP; and 25 mM MgCl2 in 200 mM Hepes, pH 7.5. Assay conditions for unphosphorylated VEGF-R2Δ50 (indicated as FLVK in the tables) were the following: 1 mM PEP; 250 μM NADH; 50 units of LDH/mL; 20 units of PK/mL; 5 mM DTT; 20 mM poly(E4Y1); 3 mM ATP; and 60 mM MgCl2 and 2 mM MnCl2 in 200 mM Hepes, pH 7.5. Assays were initiated with 5 to 40 nM of enzyme. Ki values were determined by measuring enzyme activity in the presence of varying concentrations of test compounds. The data were analyzed using Enzyme Kinetic and Kaleidagraph software.
The spectrophotometric assay was carried out as described above for VEGF-R2, except for the following changes in concentration: TEK/Tie-2=200 nM, MgCl2=40 mM, and ATP=2 mM.

Data set [3] deals with T2, unphosphorylated VEGF-R2Δ50 (FLVK) (Homo sapiens, UniProt P35968, DEL940-989/E990V).
T2 construct: VEGF-R2Δ50 contains residues 806-939 and 990-1171; made in house; host or cells: baculovirus/insect cells
Kind of data set: VEGF-R2 coupled spectrophotometric assay, unphosphorylated construct (FLVK).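 Also: Baculovirus-expressed cytosolic kinase domain, ADP formation linked via pyruvate kinase and lactate dehydrogenase to NADH oxidation, read as falling absorbance at 340 nm.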 It is filed as biochemical.
Protocol: A construct (VEGF-R2Δ50) of the cytosolic domain of human vascular endothelial growth factor receptor 2 (VEGF-R2) lacking the 50 central residues of the 68 residues of the kinase insert domain was expressed in a baculovirus/insect cell system. […] Autophosphorylation of the purified construct was performed by incubation of the enzyme at a concentration of 4 μM in the presence of 3 mM ATP and 40 mM MgCl2 in 100 mM Hepes, pH 7.5, containing 5% glycerol and 5 mM DTT, at 4° C. for 2 h.

The target of data set [4] is T3, FGF-R1 intracellular kinase domain (Homo sapiens, UniProt P11362, C488A/C584S/L457V).
T3 construct: starting from the endogenous methionine residue 456 to glutamate 766; made in house; host or cells: baculovirus expression system
Kind of data set: FGF-R spectrophotometric assay. It is filed as biochemical. To be noted: for inhibition at 1 µM: read-out: FGF-P percent inhibition; for Ki: read-out: FGF-P Ki.
Description: The intracellular kinase domain of human FGF-R1 was expressed using the baculovirus vector expression system starting from the endogenous methionine residue 456 to glutamate 766, according to the residue numbering system of Mohammadi et al., Mol. Cell.
The production of ADP from ATP that accompanies phosphoryl transfer was coupled to oxidation of NADH using phosphoenolpyruvate (PEP) and a system having pyruvate kinase (PK) and lactic dehydrogenase (LDH). The oxidation of NADH was monitored by following the decrease of absorbance at 340 nm (e340=6.22 cm^−1 mM^−1) using a Beckman DU 650 spectrophotometer. […] Assays were initiated with 5 to 40 nM of enzyme. Ki values were determined by measuring enzyme activity in the presence of varying concentrations of test compounds. The data were analyzed using Enzyme Kinetic and Kaleidagraph software.
The spectrophotometric assay was carried out as described above for VEGF-R2, except for the following changes in concentration: FGF-R=50 nM, ATP=2 mM, and poly(E4Y1)=15 mM.

For the next data set, the target named is T4, LCK tyrosine kinase (Homo sapiens, UniProt P06239, C224D/P223M).
T4 construct: starting from amino acid residue 223 to the end of the protein at residue 509; made in house; host or cells: insect cells
As to the kind of experiment: LCK spectrophotometric assay.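 As to all read-outs here: recombinant LCK kinase activity on poly(E4Y1), ADP formation coupled through PK/LDH to NADH oxidation, followed as absorbance loss at 340 nm.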 It is filed as biochemical. To be noted: for inhibition at 1 µM: read-out: LCK-P percent inhibition; for Ki: read-out: LCK-P Ki.

In data set [5] the test system is lung cancer cells (line MV522). As to the kind of experiment: Cancer cell proliferation (MV522) assay (MTT). The format is cell-based. The procedure, abridged: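 Proliferation was read by MTT reduction 72 h after compound addition, in a 4-day protocol with no starvation step. Two thousand MV522 cells were seeded in RPMI1640 with 10% FBS and 2 mM glutamine and given 1 day to attach before dosing.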

Data set [6] deals with T5, phosphorylated VEGF-R2Δ50 (FLVK-P) (Homo sapiens, UniProt P35968, DEL940-989/E990V).
T5 construct: VEGF-R2Δ50 contains residues 806-939 and 990-1171; made in house; host or cells: baculovirus/insect cells
Kind of data set: VEGF-R2 coupled spectrophotometric assay, phosphorylated construct (FLVK-P). It is filed as biochemical. The procedure, abridged:
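Baculovirus-expressed VEGF-R2Δ50 (residues 806-939/990-1171, E990V), optionally autophosphorylated; ADP formation coupled via PK/LDH to NADH oxidation at 340 nm, pH 7.5 Hepes. FLVK-P: 1 mM ATP, 5.1 mM poly(E4Y1), 25 mM MgCl2; FLVK: 3 mM ATP, 20 mM poly(E4Y1), 60 mM MgCl2, 2 mM MnCl2. Ki from activity over compound concentrations.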

The target of a further data set is T6, FL-CHK-1 (Homo sapiens, UniProt O14757).
T6 construct: C-terminally His-tagged full-length human CHK-1 (FL-CHK-1); made in house; host or cells: baculovirus/insect cells
T6 sequence (O14757 1-476): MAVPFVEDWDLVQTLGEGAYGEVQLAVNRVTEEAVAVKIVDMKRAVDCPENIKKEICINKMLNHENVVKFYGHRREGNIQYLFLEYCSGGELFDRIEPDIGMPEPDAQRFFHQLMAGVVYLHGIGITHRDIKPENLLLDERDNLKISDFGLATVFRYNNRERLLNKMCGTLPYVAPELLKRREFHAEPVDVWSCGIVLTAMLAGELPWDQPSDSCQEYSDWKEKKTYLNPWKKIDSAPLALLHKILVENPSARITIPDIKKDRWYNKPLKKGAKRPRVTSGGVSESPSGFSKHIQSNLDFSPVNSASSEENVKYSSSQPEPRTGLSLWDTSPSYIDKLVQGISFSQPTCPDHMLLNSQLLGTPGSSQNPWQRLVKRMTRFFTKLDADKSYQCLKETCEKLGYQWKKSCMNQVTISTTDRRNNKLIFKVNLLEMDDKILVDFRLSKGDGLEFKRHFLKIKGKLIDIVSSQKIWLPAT
As to the kind of experiment: CHK-1 coupled spectrophotometric assay (Syntide-2). It is filed as biochemical. From the text: C-terminally His-tagged full-length human CHK-1 (FL-CHK-1) was expressed using the baculovirus/insect cell system. It contains 6 histidine residues (6×His-tag) at the C-terminus of the 476 amino acid human CHK-1. The protein was purified by conventional chromatographic techniques.
The production of ADP from ATP that accompanies phosphoryl transfer to the synthetic substrate peptide Syntide-2 ([…]) was coupled to oxidation of NADH using phosphoenolpyruvate (PEP) through the actions of pyruvate kinase (PK) and lactic dehydrogenase (LDH). The oxidation of NADH was monitored by following the decrease of absorbance at 340 nm (ε340=6.22 cm−1 mM^−1) using a HP8452 spectrophotometer. Typical reaction solutions contained: […]; 0.15 mM NADH; 28 units of LDH/ml; 16 units of PK/ml; 3 mM DTT; 0.125 mM Syntide-2; 0.15 mM ATP; 25 mM MgCl2 in 50 mM TRIS, pH 7.5; and 400 mM NaCl. Assays were initiated with 10 nM of FL-CHK-1. Ki values were determined by measuring initial enzyme activity in the presence of varying concentrations of test compounds. The data were analyzed using Enzyme Kinetic and Kaleidagraph software.

Where [7] appears, read: HUVEC, with albumin, read-out: Huvec + Albumin IC50.
[8] abbreviates: HUVEC proliferation with albumin, read-out: Huvec + Albumin IC50.
Setting [9] is: VEGF-stimulated HUVEC proliferation, read-out: HUVEC IC50.
The mark [10] stands for this setting: unphosphorylated VEGF-R2 construct.

Counter-ions that a name gives are not always drawn. Like-named read-outs stand apart in the source and are kept apart here. Bounds are passed on as bounds.

T1 sequence (Q02763 775-1124): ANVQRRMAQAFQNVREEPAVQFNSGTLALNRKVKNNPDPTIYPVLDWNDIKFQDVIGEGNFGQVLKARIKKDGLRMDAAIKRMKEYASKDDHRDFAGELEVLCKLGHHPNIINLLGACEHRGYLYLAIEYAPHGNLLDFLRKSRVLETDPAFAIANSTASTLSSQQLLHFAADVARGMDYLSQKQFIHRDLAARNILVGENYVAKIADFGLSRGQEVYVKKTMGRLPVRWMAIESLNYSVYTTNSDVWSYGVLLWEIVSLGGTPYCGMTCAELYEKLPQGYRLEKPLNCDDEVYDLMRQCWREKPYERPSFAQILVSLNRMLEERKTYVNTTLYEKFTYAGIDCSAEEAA
T3 sequence (P11362 456-766 L457V/C488A/C584S): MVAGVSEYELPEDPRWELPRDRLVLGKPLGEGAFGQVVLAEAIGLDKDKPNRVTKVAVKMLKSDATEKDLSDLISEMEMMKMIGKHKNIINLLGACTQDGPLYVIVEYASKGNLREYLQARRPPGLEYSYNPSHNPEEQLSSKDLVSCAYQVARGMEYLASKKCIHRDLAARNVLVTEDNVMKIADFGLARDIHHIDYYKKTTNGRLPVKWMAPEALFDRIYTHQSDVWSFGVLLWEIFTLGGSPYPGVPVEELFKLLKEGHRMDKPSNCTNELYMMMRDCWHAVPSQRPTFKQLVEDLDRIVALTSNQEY
T4 sequence (P06239 223-509 P223M/C224D): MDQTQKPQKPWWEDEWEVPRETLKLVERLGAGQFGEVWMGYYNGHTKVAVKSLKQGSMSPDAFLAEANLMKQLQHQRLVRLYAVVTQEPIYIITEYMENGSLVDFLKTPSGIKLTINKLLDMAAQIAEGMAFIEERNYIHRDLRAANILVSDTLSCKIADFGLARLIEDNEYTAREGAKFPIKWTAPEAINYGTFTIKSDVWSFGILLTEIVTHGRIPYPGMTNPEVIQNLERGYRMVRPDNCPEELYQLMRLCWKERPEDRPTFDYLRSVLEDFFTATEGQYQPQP
T2 sequence (P35968 with tags, fused parts or gaps DEL940-989/E990V limits assumed): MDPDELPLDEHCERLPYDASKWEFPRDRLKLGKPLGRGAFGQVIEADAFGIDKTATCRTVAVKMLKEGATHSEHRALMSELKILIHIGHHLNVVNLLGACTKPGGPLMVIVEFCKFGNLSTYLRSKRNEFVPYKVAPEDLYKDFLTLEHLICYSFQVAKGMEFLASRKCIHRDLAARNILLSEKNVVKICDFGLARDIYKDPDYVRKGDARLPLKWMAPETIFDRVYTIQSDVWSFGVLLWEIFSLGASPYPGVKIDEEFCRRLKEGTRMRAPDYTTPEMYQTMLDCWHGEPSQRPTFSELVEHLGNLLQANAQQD
T5 sequence (P35968 with tags, fused parts or gaps DEL940-989/E990V limits assumed): as above

For orientation: IC50 means the midpoint of a concentration-inhibition curve. What is called inhibition is the drop in the measured response relative to a control, in per cent. One may read the Ki as a dissociation constant, usually derived from enzyme kinetics or from competition with a known ligand. `O=C(Nc1ccc(N2CCNCC2)c(C(F)(F)F)c1)c1cccc(CCc2cc(/C=C/c3cccnc3)n[nH]2)c1` [Example F-5]: the IC50 in data set [1] (HUVEC, read-out: HUVEC IC50) is 4.1 nM; in data set [1] (setting [7]) it was 17 nM; in [5] (MV522), 1400 nM. For the same molecule, the inhibition at 1 µM in data set [2] turned out to be 56%; in [4], 69%; at LCK tyrosine kinase, 84%. In data set [3], the affinity, expressed as Ki, was 0.86 nM.
For `COc1ccc(Nc2cc(CCc3cccc(C(=O)Nc4cc(Cl)c(N(C)C)c(Cl)c4)c3)[nH]n2)cn1` [Example G-7, N-(3,5-Dichloro-4-dimethylaminophenyl)-3-{2-[5-(6-methoxy-pyridin-3-yl)amino-2H-pyrazol-3-yl]ethyl}benzamide], the IC50 in data set [1] (HUVEC, read-out: HUVEC IC50) was 17 nM; in [1] (setting [7]), 190 nM; in [5] (MV522), more than 10000 nM. Besides, the Ki in data set [6] turned out to be 0.65 nM; in [3], 0.25 nM; in data set [4], 23 nM; at LCK tyrosine kinase, 27 nM. In data set [2], the inhibition at 1 µM turned out to be 14%.
Turning to `COc1ccc(Nc2cc(CCc3cccc(C(=O)Nc4ccc(N5CCCC5)c(C(F)(F)F)c4)c3)[nH]n2)cn1` [Example G-8, 3-{2-[5-(6-Methoxypyridin-3-yl)amino-2H-pyrazol-3-yl]-ethyl}-N-(4-pyrrolidin-1-yl-3-trifluoromethylphenyl)benzamide], the IC50 worked out at 12 nM in data set [1] (HUVEC, read-out: HUVEC IC50); 114 nM in [1] (setting [7]); 8700 nM in data set [5] (MV522). Moreover, the Ki in data set [6] was 0.73 nM; in [3], 0.035 nM; in [4], 20 nM; on LCK tyrosine kinase it was 5.8 nM. Also, the inhibition at 1 µM in data set [2] was determined as 62%.
On to `COc1ccc(Nc2cc(COc3cc(C(=O)Nc4ccc(N5CCCC5)c(C(F)(F)F)c4)ccc3F)[nH]n2)cn1` [Example J-2, 4-Fluoro-3-[5-(6-methoxy-pyridin-3-yl)amino-2H-pyrazol-3-yl]methoxy-N-(4-pyrrolidin-1-yl-3-trifluoromethyl-phenyl)-benzamide], for which the IC50 in [1] (HUVEC, read-out: HUVEC IC50) was 26 nM; in [1] (setting [7]) it was 180 nM; in [5] (MV522) it was more than 10000 nM. In addition, in [2], the inhibition at 1 µM was 17%. Besides, the Ki in data set [3] turned out to be 0.68 nM; in [4] it was 57 nM; at LCK tyrosine kinase it was 10.5 nM.
As to `Cc1ccc2cc(NC(=O)c3cccc(OCc4cncc5ccccc45)c3)ccc2n1` [Example K-3, 3-(Isoquinolin-4-yl)methoxy-N-(2-methyl-quinolin-6-yl)-benzamide hydrochloride], the 50% inhibitory concentration (IC50) in data set [1] (HUVEC, read-out: HUVEC IC50) is 430 nM; in data set [5] (MV522) it was more than 10000 nM. Besides, the inhibition constant Ki in data set [6] came to 1.66 nM; at FL-CHK-1 it was 26000 nM; in data set [3], 3.4 nM.
Usually melting point stands for the temperature, or range, at which the solid turns liquid. The molecule `Cl.O=C(Nc1ccc(N2CCOCC2)c(C(F)(F)F)c1)c1ccc(F)c(OCc2cncc3ccccc23)c1` [Example R-14, 4-Fluoro-N-(4-morpholin-4-yl-3-trifluoromethyl-phenyl)-3-(isoquinolin-4-ylmethoxy)-benzamide] gave a melting point of 175 to 180 °C. Further, the IC50 in [1] (HUVEC, read-out: HUVEC IC50) was 14 nM. Besides, the IC50 in data set [1] (setting [7]) was found to be 345 nM. Also, the Ki in data set [3] turned out to be 3.4 nM. The inhibition at 1 µM in data set [4] was determined as 96%. Besides, the inhibition at 1 µM at LCK tyrosine kinase came out at 87%. In data set [5] (MV522), the half-maximal inhibitory concentration (IC50) worked out at 5700 nM.
As for `CC(C)(C)c1cc(C(=O)Nc2cccc(CSc3ncnc4[nH]ncc34)c2)ccc1O` [Example V-4, N-{3-[(1H-pyrazolo[3,4-d]-pyrimidin-4-yl)sulfanylmethyl]phenyl}-(4-hydroxy-3-t-butyl)benzamide], the IC50 in data set [1] (setting [8]) is more than 1000 nM; in data set [1] (setting [9]), 27 nM. The inhibition at 1 µM in data set [2] was 40%; in [4] it was 37%; on LCK tyrosine kinase, 22%. The molecule further displayed a Ki in data set [3] (setting [10]) of 0.045 nM.
With `CC(C)(C)c1cc(C(=O)Nc2cccc(OCc3cccnc3)c2)ccc1O` [Example X-4, 3-t-Butyl-4-hydroxy-N-[3-(pyridin-3-ylmethoxy)-phenyl]-benzamide], the melting point lay within 104 to 107 °C. In [1] (setting [8]), the IC50 was more than 1000 nM. For the same molecule, in data set [1] (setting [9]), the IC50 came to 71 nM. The molecule further came in with a Ki in data set [3] (setting [10]) of 4.1 nM. In data set [4], the inhibition at 1 µM stood at 11%. The inhibition at 1 µM at LCK tyrosine kinase stood at 11%. The molecule further registered an IC50 in data set [5] (MV522 lung cancer cells) of 6100 nM.
